In ChEMBL document CHEMBL1681747, “Novel second generation analogs of eribulin. Part II: Orally available and active against resistant tumors in vivo” (Bioorg Med Chem Lett, 2011):

How the values were obtained:
[1] = Cytotoxicity against human MES-SA cells; format: functional, cell-based
[2] = Cytotoxicity against human MES-SA/Dx5-Rx1 cells; format: functional, cell-based
[3] = system: MES-SA; experiment: Fold resistant ratio of IC50 for MES-SA/Dx5-Rx1 cells to IC50 for human MES-SA cells
[4] = system: DLD-1; experiment: Cytotoxicity against human DLD1 cells; format: functional, cell-based
[5] = system: HCT-15; experiment: Cytotoxicity against human HCT15 cells; format: functional, cell-based

SMILES	IC50 [1] [nM]	IC50 [2] [nM]	Ratio IC50 [3]	IC50 [4] [nM]	IC50 [5] [nM]
C=C1C[C@@H]2CC[C@@]34C[C@H]5O[C@H]6[C@@H](O3)[C@H]3O[C@H](CC[C@@H]3O[C@H]6[C@H]5O4)CC(=O)C[C@@H]3[C@@H](OC)[C@@H](C[C@@H](CN4CCN(C(=O)OCC)CC4)OC)O[C@H]3C[C@H]3O[C@@H](CC[C@@H]1O2)C[C@@H](C)C3=C	0.08	3.05	38.1	–	–
C=C1C[C@@H]2CC[C@@]34C[C@H]5O[C@H]6[C@@H](O3)[C@H]3O[C@H](CC[C@@H]3O[C@H]6[C@H]5O4)CC(=O)C[C@@H]3[C@@H](OC)[C@@H](C[C@@H](CN4C[C@H]4C)OC)O[C@H]3C[C@H]3O[C@@H](CC[C@@H]1O2)C[C@@H](C)C3=C (stereo partly drawn)	0.16	2.79	18.04	0.53	0.78
C=C(C)CN(CC)CC[C@H]1O[C@H]2C[C@H]3O[C@@H](CC[C@@H]4O[C@@H](CC[C@@]56C[C@H]7O[C@H]8[C@@H](O5)[C@H]5O[C@H](CC[C@@H]5O[C@H]8[C@H]7O6)CC(=O)C[C@@H]2[C@H]1OC)CC4=C)C[C@@H](C)C3=C	–	–	–	0.61	0.46
C=C1C[C@@H]2CC[C@@]34C[C@H]5O[C@H]6[C@@H](O3)[C@H]3O[C@H](CC[C@@H]3O[C@H]6[C@H]5O4)CC(=O)C[C@@H]3[C@@H](OC)[C@@H](C[C@@H](CN4C[C@@H]4C)OC)O[C@H]3C[C@H]3O[C@@H](CC[C@@H]1O2)C[C@@H](C)C3=C (stereo partly drawn)	0.13	2.23	18.26	0.47	0.67
C=C(C)CN(CC)C[C@H](C[C@H]1O[C@H]2C[C@H]3O[C@@H](CC[C@@H]4O[C@@H](CC[C@@]56C[C@H]7O[C@H]8[C@@H](O5)[C@H]5O[C@H](CC[C@@H]5O[C@H]8[C@H]7O6)CC(=O)C[C@@H]2[C@H]1OC)CC4=C)C[C@@H](C)C3=C)OC	–	–	–	0.51	0.34
C=C1C[C@@H]2CC[C@@]34C[C@H]5O[C@H]6[C@@H](O3)[C@H]3O[C@H](CC[C@@H]3O[C@H]6[C@H]5O4)CC(=O)C[C@@H]3[C@@H](OC)[C@@H](C[C@H](O)CN4CCOCC4)O[C@H]3C[C@H]3O[C@@H](CC[C@@H]1O2)C[C@@H](C)C3=C	0.15	7.26	49.82	0.31	0.36
C=C1C[C@@H]2CC[C@@]34C[C@H]5O[C@H]6[C@@H](O3)[C@H]3O[C@H](CC[C@@H]3O[C@H]6[C@H]5O4)CC(=O)C[C@@H]3[C@@H](OC)[C@@H](CCN4CCOCC4)O[C@H]3C[C@H]3O[C@@H](CC[C@@H]1O2)C[C@@H](C)C3=C	–	–	–	0.23	0.16
C=C1C[C@@H]2CC[C@@]34C[C@H]5O[C@H]6[C@@H](O3)[C@H]3O[C@H](CC[C@@H]3O[C@H]6[C@H]5O4)CC(=O)C[C@@H]3[C@@H](OC)[C@@H](C[C@@H](CN4CC4C)OC)O[C@H]3C[C@H]3O[C@@H](CC[C@@H]1O2)C[C@@H](C)C3=C (stereo partly drawn)	0.13	2.55	19.91	0.29	0.4
C=C1C[C@@H]2CC[C@@]34C[C@H]5O[C@H]6[C@@H](O3)[C@H]3O[C@H](CC[C@@H]3O[C@H]6[C@H]5O4)CC(=O)C[C@@H]3[C@@H](OC)[C@@H](C[C@@H](CN4CCN(S(=O)(=O)c5ccc(C)cc5)CC4)OC)O[C@H]3C[C@H]3O[C@@H](CC[C@@H]1O2)C[C@@H](C)C3=C	3.16	39.1	12.35	0.99	0.62
C#CCN(CC#C)C[C@H](C[C@H]1O[C@H]2C[C@H]3O[C@@H](CC[C@@H]4O[C@@H](CC[C@@]56C[C@H]7O[C@H]8[C@@H](O5)[C@H]5O[C@H](CC[C@@H]5O[C@H]8[C@H]7O6)CC(=O)C[C@@H]2[C@H]1OC)CC4=C)C[C@@H](C)C3=C)OC	0.13	0.53	3.99	0.28	0.17
C=CCN(CC=C)CC[C@H]1O[C@H]2C[C@H]3O[C@@H](CC[C@@H]4O[C@@H](CC[C@@]56C[C@H]7O[C@H]8[C@@H](O5)[C@H]5O[C@H](CC[C@@H]5O[C@H]8[C@H]7O6)CC(=O)C[C@@H]2[C@H]1OC)CC4=C)C[C@@H](C)C3=C	0.17	1.15	6.57	0.31	0.21
C#CCN(CC#C)CC[C@H]1O[C@H]2C[C@H]3O[C@@H](CC[C@@H]4O[C@@H](CC[C@@]56C[C@H]7O[C@H]8[C@@H](O5)[C@H]5O[C@H](CC[C@@H]5O[C@H]8[C@H]7O6)CC(=O)C[C@@H]2[C@H]1OC)CC4=C)C[C@@H](C)C3=C	0.69	3.99	5.65	1.42	0.89
C#CCN(C)C[C@H](C[C@H]1O[C@H]2C[C@H]3O[C@@H](CC[C@@H]4O[C@@H](CC[C@@]56C[C@H]7O[C@H]8[C@@H](O5)[C@H]5O[C@H](CC[C@@H]5O[C@H]8[C@H]7O6)CC(=O)C[C@@H]2[C@H]1OC)CC4=C)C[C@@H](C)C3=C)OC	–	–	–	0.31	0.19
C=C1C[C@@H]2CC[C@@]34C[C@H]5O[C@H]6[C@@H](O3)[C@H]3O[C@H](CC[C@@H]3O[C@H]6[C@H]5O4)CC(=O)C[C@@H]3[C@@H](OC)[C@@H](C[C@@H](CN4CCN(C(F)(F)F)CC4)OC)O[C@H]3C[C@H]3O[C@@H](CC[C@@H]1O2)C[C@@H](C)C3=C	0.14	0.83	6.03	0.17	0.15
C=CCN(C)C[C@H](C[C@H]1O[C@H]2C[C@H]3O[C@@H](CC[C@@H]4O[C@@H](CC[C@@]56C[C@H]7O[C@H]8[C@@H](O5)[C@H]5O[C@H](CC[C@@H]5O[C@H]8[C@H]7O6)CC(=O)C[C@@H]2[C@H]1OC)CC4=C)C[C@@H](C)C3=C)OC	0.07	1.95	29.4	0.23	0.22
C=C1C[C@@H]2CC[C@@]34C[C@H]5O[C@H]6[C@@H](O3)[C@H]3O[C@H](CC[C@@H]3O[C@H]6[C@H]5O4)CC(=O)C[C@@H]3[C@@H](OC)[C@@H](C[C@@H](CNCC(=O)OCCCC)OC)O[C@H]3C[C@H]3O[C@@H](CC[C@@H]1O2)C[C@@H](C)C3=C	0.28	1.6	5.83	0.58	0.37
C=C1C[C@@H]2CC[C@@]34C[C@H]5O[C@H]6[C@@H](O3)[C@H]3O[C@H](CC[C@@H]3O[C@H]6[C@H]5O4)CC(=O)C[C@@H]3[C@@H](OC)[C@@H](C[C@@H](CN(C)c4ncccn4)OC)O[C@H]3C[C@H]3O[C@@H](CC[C@@H]1O2)C[C@@H](C)C3=C	2.17	10.1	4.66	6.9	5.4
C=C1C[C@@H]2CC[C@@]34C[C@H]5O[C@H]6[C@@H](O3)[C@H]3O[C@H](CC[C@@H]3O[C@H]6[C@H]5O4)CC(=O)C[C@@H]3[C@@H](OC)[C@@H](CCN4CCC(C(F)(F)F)CC4)O[C@H]3C[C@H]3O[C@@H](CC[C@@H]1O2)C[C@@H](C)C3=C	–	–	–	0.22	0.14
C=C1C[C@@H]2CC[C@@]34C[C@H]5O[C@H]6[C@@H](O3)[C@H]3O[C@H](CC[C@@H]3O[C@H]6[C@H]5O4)CC(=O)C[C@@H]3[C@@H](OC)[C@@H](CCN)O[C@H]3C[C@H]3O[C@@H](CC[C@@H]1O2)C[C@@H](C)C3=C	0.17	47.6	288.17	4.67	8.57
C=CCN(CC=C)C[C@H](C[C@H]1O[C@H]2C[C@H]3O[C@@H](CC[C@@H]4O[C@@H](CC[C@@]56C[C@H]7O[C@H]8[C@@H](O5)[C@H]5O[C@H](CC[C@@H]5O[C@H]8[C@H]7O6)CC(=O)C[C@@H]2[C@H]1OC)CC4=C)C[C@@H](C)C3=C)OC	0.17	1.01	6.26	0.44	0.27
